Test results from PMC8397291 (2021).

Assays:
Assay in all cases: competitive native PAGE, 2a staining
Details in all cases: 100 mM KCl; TBE; 100 μM competitor with 20 μM c-MYC Pu22; 5 μM 2a
[1] = system: s.c. ds-DNA (DNA, duplex) CAATCGGATCGAATTCGATCCGATTG
[2] = system: GC-rich ds-DNA (DNA, duplex) TGAGGGTGGGTAGGGTGGGTAA/TTACCCACCCTACCCACCCTCA
[3] = system: TBA (DNA, G4) GGTTGGTGTGGTTGG

Measured: binding

CCN(CC)c1ccc2cc(C(=N)N)c(=O)oc2c1
no: all assays above
